{"source": "the OligoGym collection", "note": "HELM strings list units from the 5' end as sugar, base in round brackets, then linkage (d deoxyribose, r ribose, m 2'-O-methyl, p phosphodiester). Strings are as the collection lists them; they lack the last nucleoside at the 3' end of the tested compound. [moe] = 2'-O-(2-methoxyethyl) (MOE); [sp] = phosphorothioate linkage; [m5C] = 5-methylcytosine", "data": [{"target": "ATXN2", "assay": "mouse, dose not given", "details": "ASO", "units": {"3 h FOB score": "score 0-7"}, "values": [{"substance": "RNA1{[moe]([m5C])[sp].[moe]([m5C])p.[moe](T)p.[moe](A)p.[moe](T)[sp].d([m5C])[sp].d(A)[sp].d(T)[sp].d([m5C])[sp].d(A)[sp].d(T)[sp].d(T)[sp].d(T)[sp].[moe](T)p.[moe]([m5C])p.[moe]([m5C])[sp].[moe](A)}$$$$ (last 3' nucleoside missing)", "3 h FOB score": 1}, {"substance": "RNA1{[moe](A)[sp].[moe]([m5C])p.[moe](A)p.[moe](T)p.[moe](A)p.d(G)[sp].d(G)[sp].d(T)[sp].d(T)[sp].d(A)[sp].d(G)[sp].d(A)[sp].d(A)[sp].d(T)[sp].d(T)[sp].[moe](T)p.[moe](T)p.[moe]([m5C])[sp].[moe]([m5C])}$$$$ (last 3' nucleoside missing)", "3 h FOB score": 1}, {"substance": "RNA1{[moe](T)[sp].[moe](G)p.[moe](T)p.[moe](A)p.[moe]([m5C])[sp].d(T)[sp].d(T)[sp].d([m5C])[sp].d(A)[sp].d([m5C])[sp].d(A)[sp].d(T)[sp].d(T)[sp].d(T)[sp].d(G)[sp].[moe](G)p.[moe](A)p.[moe](G)[sp].[moe]([m5C])}$$$$ (last 3' nucleoside missing)", "3 h FOB score": 3}, {"substance": "RNA1{[moe](T)[sp].[moe](G)p.[moe](G)p.[moe](T)p.[moe](G)[sp].d(G)[sp].d(T)[sp].d(G)[sp].d(T)[sp].d(G)[sp].d([m5C])[sp].d(G)[sp].d([m5C])[sp].[moe](A)p.[moe](T)p.[moe](G)[sp].[moe](T)}$$$$ (last 3' nucleoside missing)", "3 h FOB score": 6.25}, {"substance": "RNA1{[moe](T)[sp].[moe](G)p.[moe](T)p.[moe](A)p.[moe]([m5C])[sp].d(T)[sp].d(T)[sp].d(T)[sp].d(T)[sp].d([m5C])[sp].d(T)[sp].d([m5C])[sp].d(A)[sp].[moe](T)p.[moe](G)p.[moe](T)[sp].[moe](G)}$$$$ (last 3' nucleoside missing)", "3 h FOB score": 0}, {"substance": "RNA1{[moe](A)[sp].[moe]([m5C])p.[moe](A)p.[moe]([m5C])[sp].[moe](A)[sp].d(G)[sp].d(T)[sp].d(T)[sp].d(T)[sp].d([m5C])[sp].d(A)[sp].d([m5C])[sp].d(T)[sp].d(A)[sp].d(G)[sp].[moe](G)p.[moe](T)p.[moe](T)[sp].[moe]([m5C])}$$$$ (last 3' nucleoside missing)", "3 h FOB score": 2}, {"substance": "RNA1{[moe](A)[sp].[moe](A)p.[moe](G)p.[moe](T)p.[moe]([m5C])p.d(T)[sp].d(T)[sp].d(G)[sp].d(T)[sp].d(T)[sp].d([m5C])[sp].d(A)[sp].d(G)[sp].d(T)[sp].d(G)[sp].[moe](T)p.[moe]([m5C])p.[moe]([m5C])[sp].[moe](T)}$$$$ (last 3' nucleoside missing)", "3 h FOB score": 4.5}, {"substance": "RNA1{[moe](T)[sp].[moe](A)p.[moe](G)p.[moe]([m5C])p.[moe](T)p.d([m5C])[sp].d(A)[sp].d(T)[sp].d([m5C])[sp].d(A)[sp].d(A)[sp].d(G)[sp].d(G)[sp].d(T)[sp].d(A)[sp].[moe]([m5C])p.[moe]([m5C])p.[moe](A)[sp].[moe](G)}$$$$ (last 3' nucleoside missing)", "3 h FOB score": 3}, {"substance": "RNA1{[moe](T)[sp].[moe](T)p.[moe]([m5C])p.[moe](T)p.d([m5C])[sp].d(T)[sp].d(A)[sp].d(T)[sp].d(T)[sp].d(T)[sp].d([m5C])[sp].d(T)[sp].d(T)[sp].d(T)[sp].[moe](G)p.[moe](T)p.[moe]([m5C])p.[moe]([m5C])[sp].[moe](A)}$$$$ (last 3' nucleoside missing)", "3 h FOB score": 4}, {"substance": "RNA1{[moe](T)[sp].[moe]([m5C])p.[moe](T)p.[moe](G)p.[moe](T)p.[moe](A)p.d([m5C])[sp].d(T)[sp].d(T)[sp].d(T)[sp].d(T)[sp].d([m5C])[sp].d(T)[sp].d([m5C])[sp].d(A)[sp].d(T)[sp].[moe](G)p.[moe](T)[sp].[moe](G)}$$$$ (last 3' nucleoside missing)", "3 h FOB score": 1}, {"substance": "RNA1{[moe](A)[sp].[moe](G)p.[moe](G)p.[moe](G)p.[moe](T)p.d(T)[sp].d(A)[sp].d(A)[sp].d(T)[sp].d(T)[sp].d(A)[sp].d(G)[sp].d(G)[sp].d(A)[sp].d(T)[sp].[moe]([m5C])p.[moe](T)p.[moe](A)[sp].[moe](T)}$$$$ (last 3' nucleoside missing)", "3 h FOB score": 6}, {"substance": "RNA1{[moe](G)[sp].[moe](T)p.[moe](T)p.[moe]([m5C])p.[moe](A)p.d(A)[sp].d(A)[sp].d(T)[sp].d(T)[sp].d([m5C])[sp].d([m5C])[sp].d(G)[sp].d(G)[sp].d([m5C])[sp].d(T)[sp].[moe]([m5C])p.[moe]([m5C])p.[moe](A)[sp].[moe](T)}$$$$ (last 3' nucleoside missing)", "3 h FOB score": 5.25}, {"substance": "RNA1{[moe](T)[sp].[moe]([m5C])p.[moe](T)p.[moe](A)p.[moe](T)p.d(T)[sp].d(T)[sp].d([m5C])[sp].d(T)[sp].d(T)[sp].d(T)[sp].d(G)[sp].d(T)[sp].d([m5C])[sp].d([m5C])[sp].[moe](A)p.[moe](G)p.[moe](G)[sp].[moe](A)}$$$$ (last 3' nucleoside missing)", "3 h FOB score": 6.5}, {"substance": "RNA1{[moe](T)[sp].[moe](T)p.[moe]([m5C])p.[moe](T)p.[moe](G)[sp].d(T)[sp].d(A)[sp].d([m5C])[sp].d(T)[sp].d(T)[sp].d(T)[sp].d(T)[sp].d([m5C])[sp].[moe](T)p.[moe]([m5C])p.[moe](A)[sp].[moe](T)}$$$$ (last 3' nucleoside missing)", "3 h FOB score": 2.5}, {"substance": "RNA1{[moe](A)[sp].[moe](A)p.[moe](A)p.[moe](G)p.[moe](A)p.d([m5C])[sp].d(T)[sp].d(T)[sp].d(T)[sp].d(G)[sp].d(A)[sp].d(A)[sp].d(A)[sp].d(T)[sp].d([m5C])[sp].[moe](T)p.[moe]([m5C])p.[moe](A)[sp].[moe]([m5C])}$$$$ (last 3' nucleoside missing)", "3 h FOB score": 1}, {"substance": "RNA1{[moe](A)[sp].[moe]([m5C])p.[moe](T)p.[moe](T)p.[moe](T)p.d(T)[sp].d([m5C])[sp].d(T)[sp].d([m5C])[sp].d(A)[sp].d(T)[sp].d(G)[sp].d(T)[sp].d(G)[sp].d([m5C])[sp].[moe](G)p.[moe](G)p.[moe]([m5C])[sp].[moe](A)}$$$$ (last 3' nucleoside missing)", "3 h FOB score": 5}, {"substance": "RNA1{[moe](A)[sp].[moe](A)p.[moe](G)p.[moe]([m5C])p.[moe](T)p.d(T)[sp].d(A)[sp].d(G)[sp].d(A)[sp].d(G)[sp].d(T)[sp].d(T)[sp].d(T)[sp].d(T)[sp].d(T)[sp].[moe](G)p.[moe]([m5C])p.[moe]([m5C])[sp].[moe](T)}$$$$ (last 3' nucleoside missing)", "3 h FOB score": 4}, {"substance": "RNA1{[moe](T)[sp].[moe](T)p.[moe]([m5C])p.[moe](T)p.[moe]([m5C])p.[moe](T)p.d(A)[sp].d(T)[sp].d(T)[sp].d(T)[sp].d([m5C])[sp].d(T)[sp].d(T)[sp].d(T)[sp].d(G)[sp].d(T)[sp].[moe]([m5C])p.[moe]([m5C])[sp].[moe](A)}$$$$ (last 3' nucleoside missing)", "3 h FOB score": 4}, {"substance": "RNA1{[moe](G)[sp].[moe](G)p.[moe](A)p.[moe](T)p.[moe](T)p.d([m5C])[sp].d(T)[sp].d(G)[sp].d(T)[sp].d(A)[sp].d([m5C])[sp].d(T)[sp].d(T)[sp].d(T)[sp].d(T)[sp].[moe]([m5C])p.[moe](T)p.[moe]([m5C])[sp].[moe](A)}$$$$ (last 3' nucleoside missing)", "3 h FOB score": 1}, {"substance": "RNA1{[moe](G)[sp].[moe]([m5C])[sp].[moe](T)[sp].[moe](A)[sp].[moe](A)[sp].d([m5C])[sp].d(T)[sp].d(G)[sp].d(G)[sp].d(T)[sp].d(T)[sp].d(T)[sp].d(G)[sp].d([m5C])[sp].d([m5C])[sp].[moe]([m5C])[sp].[moe](T)[sp].[moe](T)[sp].[moe](G)}$$$$ (last 3' nucleoside missing)", "3 h FOB score": 7}, {"substance": "RNA1{[moe](G)[sp].[moe]([m5C])p.[moe](T)p.[moe](G)p.[moe](G)p.d(T)[sp].d(T)[sp].d([m5C])[sp].d([m5C])[sp].d(T)[sp].d(T)[sp].d(A)[sp].d([m5C])[sp].d(A)[sp].d(A)[sp].[moe](T)p.[moe](T)p.[moe](A)[sp].[moe](T)}$$$$ (last 3' nucleoside missing)", "3 h FOB score": 0}, {"substance": "RNA1{[moe](A)[sp].[moe](G)p.[moe](T)p.[moe](A)p.[moe](T)p.d([m5C])[sp].d(T)[sp].d([m5C])[sp].d(A)[sp].d(G)[sp].d(T)[sp].d(T)[sp].d(T)[sp].d(T)[sp].d(T)[sp].[moe](T)p.[moe](T)p.[moe](T)[sp].[moe](T)}$$$$ (last 3' nucleoside missing)", "3 h FOB score": 2}, {"substance": "RNA1{[moe](T)[sp].[moe](T)p.[moe]([m5C])p.[moe](T)p.[moe](G)[sp].d([m5C])[sp].d(T)[sp].d(A)[sp].d(A)[sp].d([m5C])[sp].d(T)[sp].d(G)[sp].d(G)[sp].[moe](T)p.[moe](T)p.[moe](T)[sp].[moe](G)}$$$$ (last 3' nucleoside missing)", "3 h FOB score": 1.75}, {"substance": "RNA1{[moe](G)[sp].[moe](T)p.[moe]([m5C])p.[moe](T)p.[moe](T)p.d(G)[sp].d(T)[sp].d(T)[sp].d([m5C])[sp].d(A)[sp].d(G)[sp].d(T)[sp].d(G)[sp].d(T)[sp].d([m5C])[sp].[moe]([m5C])p.[moe](T)p.[moe](T)[sp].[moe]([m5C])}$$$$ (last 3' nucleoside missing)", "3 h FOB score": 6}, {"substance": "RNA1{[moe](T)[sp].[moe](T)p.[moe](G)p.[moe](T)p.[moe](A)p.d([m5C])[sp].d(T)[sp].d(T)[sp].d([m5C])[sp].d(A)[sp].d([m5C])[sp].d(A)[sp].d(T)[sp].d(T)[sp].d(T)[sp].[moe](G)p.[moe](G)p.[moe](A)[sp].[moe](G)}$$$$ (last 3' nucleoside missing)", "3 h FOB score": 3.75}, {"substance": "RNA1{[moe](G)[sp].[moe](A)p.[moe](T)p.[moe](T)p.[moe](A)p.d(A)[sp].d([m5C])[sp].d(G)[sp].d(G)[sp].d(T)[sp].d(T)[sp].d(G)[sp].d([m5C])[sp].d(T)[sp].d(T)[sp].[moe](A)p.[moe](G)p.[moe](G)[sp].[moe](G)}$$$$ (last 3' nucleoside missing)", "3 h FOB score": 6.5}, {"substance": "RNA1{[moe](G)[sp].[moe](T)p.[moe](A)p.[moe](G)p.[moe](T)p.d(G)[sp].d(T)[sp].d(T)[sp].d(T)[sp].d(G)[sp].d(G)[sp].d(G)[sp].d(A)[sp].d(T)[sp].d(G)[sp].[moe]([m5C])p.[moe](T)p.[moe](T)[sp].[moe]([m5C])}$$$$ (last 3' nucleoside missing)", "3 h FOB score": 6}]}]}
